{
  "source": "patent US12508306B2",
  "about": "“Compositions and methods of use thereof for treatment of metabolic diseases and related disorders” (Washington University, priority 2018, dated 2025)",
  "molecules": {"B1": {"name": "human arginase 1: human arginase 1 enzyme (protein, UniProt P05089 1-322, looked up)", "Arginase-1": "MSAKSRTIGIIGAPFSKGQPRGGVEEGPTVLRKAGLLEKLKEQECDVKDYGDLPFADIPNDSPFQIVKNPRSVGKASEQLAGKVAEVKKNGRISLVLGGDHSLAIGSISGHARVHPDLGVIWVDAHTDINTPLTTTSGNLHGQPVSFLLKELKGKIPDVPGFSWVTPCISAKDIVYIGLRDVDPGEHYILKTLGIKYFSMTEVDRLGIGKVMEETLSYLLGRKKRPIHLSFDVDGLDPSFTPATGTPVVGGLTYREGLYITEEIYKTGLLSGLDIMEVNPSLGKTPEEVTRTVNTAVAITLACFGLAREGNHKPIDYLNPPK"}},
  "key": {"Arg2 [1]": {"system": "Arg2", "assay": "Arg2 gene expression in cultured primary hepatocytes (RNA-seq, qPCR)", "assay_type": "cell-based, murine", "from_the_text": "AML12 cells (CRL-2254) were purchased directly from the American Type Culture Collection (ATCC) and propagated and maintained precisely per manufacturer specification. Primary hepatocyte cell isolation, culture and treatment Primary murine hepatocytes obtained from WT mice were isolated^24,25,31 and cultured and maintained in regular DMEM growth media (Sigma, #D5796) containing 10% FBS. For in vitro starvation experiments, “starved” media contained 1 g/L glucose and 0:5% FBS was used. Cultures were lysed in Trizol and subjected to downstream analysis. In vitro genetic knockdown was achieved via siRNA transfection using Lipofectamine 3000 from Invitrogen (L3000015). Trehalose was obtained from Sigma Aldrich (St. Louis, MO) and was >97% purity by HPLC. Three percent trehalose water (w/v) fed ad libitum was used in all in vivo experiments.\n(§1) Total RNA was prepared by homogenizing snap-frozen livers or cultured hepatocytes in Trizol reagent (Invitrogen #15596026) according to the manufacturer's protocol. cDNA was prepared using Qiagen Quantitect reverse transcriptase kit (Qiagen #205310). Real-time qPCR was performed with Step-One Plus Real-Time PCR System (Applied Biosystems) using SYBR Green master Mix Reagent (Applied Biosystems) and specific primer pairs. Relative gene expression was calculated by a comparative method using values normalized to the expression of an internal control gene."}, "Arg2 [2]": {"system": "Arg2", "assay": "Hepatic Arg2 expression by qPCR and immunoblot in mice subjected to trehalose feeding", "assay_type": "in vivo", "conditions": "mice fed 3% trehalose water ad libitum, 5 days", "from_the_text": "AML12 cells (CRL-2254) were purchased directly from the American Type Culture Collection (ATCC) and propagated and maintained precisely per manufacturer specification. Primary hepatocyte cell isolation, culture and treatment Primary murine hepatocytes obtained from WT mice were isolated^24,25,31 and cultured and maintained in regular DMEM growth media (Sigma, #D5796) containing 10% FBS. For in vitro starvation experiments, “starved” media contained 1 g/L glucose and 0:5% FBS was used. Cultures were lysed in Trizol and subjected to downstream analysis. In vitro genetic knockdown was achieved via siRNA transfection using Lipofectamine 3000 from Invitrogen (L3000015). […]\nas §1, with “Real-time qPCR was performed with Step-One Plus Real-Time PCR System (Applied Biosystems) using SYBR Green master Mix Reagent (Applied Biosystems) and specific primer pairs.” left out\nTissues were homogenized in RIPA buffer supplemented with protease and phosphatase inhibitors (Thermo Scientific). […] Protein concentration was determined by BCA Assay Kit (Thermo Scientific) and was adjusted to 2 mg/mL. […] Protein expression levels were quantified with Image Lab software and normalized to the levels of β-actin or GAPDH."}, "[3]": {"conditions": "read-out: Km for arginine; cited from earlier work"}},
  "data": [
    {"molecule": "OCC1OC(OC2OC(CO)C(O)C(O)C2O)C(O)C(O)C1O", "note": "(centres unmarked) [Lactotrehalose, lactotrehalose]", "values": [
      {"measurement": "Arg2 expression compared with native trehalose at equivalent doses", "setting": "Arg2 [1]; primary hepatocytes, 10 mM and 100 mM", "result": "significantly enhanced"}
    ]},
    {"molecule": "OC[C@H]1O[C@H](O[C@H]2O[C@H](CO)[C@@H](O)[C@H](O)[C@H]2O)[C@H](O)[C@@H](O)[C@@H]1O", "note": "[trehalose]", "values": [
      {"measurement": "hepatic Arg2 mRNA and protein", "setting": "Arg2 [2]", "result": "induced Arg2 mRNA and protein"},
      {"measurement": "Arg2 induction by qPCR and immunoblot", "setting": "Arg2 [1]; primary hepatocytes, 1 mM, 10 mM, and 100 mM, within 24 h", "result": "rapid, dose-dependent, cell autonomous Arg2 induction"},
      {"measurement": "Arg2 expression by RNA-seq", "setting": "Arg2 [1]; trehalose-treated primary hepatocytes relative to untreated hepatocytes", "result": "among the most highly upregulated genes"}
    ]},
    {"molecule": "B1", "values": [
      {"measurement": "Km", "setting": "[3]", "result": "~45", "unit": "mM"}
    ]}
  ]
}
